The text below walks through data of patent US20080051387A1, “TETRAHYDROPYRIDO[3,4-D]PYRIMIDINES AND RELATED ANALOGUES” (priority 2006, published 2008).

The target of this assay is T1, chimeric human H3 receptor (Homo sapiens, UniProt Q9Y5N1).
T1 construct: rat Galpha-i2 (Gnai2, rat); made in house; host or cells: Sf9 insect cells (baculovirus); P2 membranes
The assay can be described thus: Chimeric human H3 receptor screening GTP binding assay (inhibition of histamine-stimulated GTP-gamma35S binding, Example 8). The assay is classed as biochemical. The method in brief:
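Compound tested at 4 μM against 1 μM histamine stimulation; 125 pM GTP-gamma35S binding measured by filtration and scintillation after 60 min at room temperature. Membranes from Sf9 cells expressing chimeric human H3 plus G-protein subunits, in Tris pH 7.4/NaCl/MgCl2/GDP buffer; values are % inhibition after nonspecific subtraction.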

The mark [1] stands for this setting: symbol ! in Ki, test compound 4 μM, 1 μM histamine, read-out: percent inhibition of agonist-induced GTP-gammaS binding to H3.
Where [2] appears, read: 1 h, assay described in Example 8, symbol "!" in column headed Ki, read-out: Ki ("!": percent inhibition of agonist-induced GTP-gammaS binding to H3).
Setting [3] is: 1 h, assay of Example 8, symbol "!" in column headed Ki, read-out: percent inhibition of agonist-induced GTP-gammaS binding to H3.

Where two headings read alike, the source gives them in different places.

T1 sequence (Q9Y5N1 with tags, fused parts or gaps): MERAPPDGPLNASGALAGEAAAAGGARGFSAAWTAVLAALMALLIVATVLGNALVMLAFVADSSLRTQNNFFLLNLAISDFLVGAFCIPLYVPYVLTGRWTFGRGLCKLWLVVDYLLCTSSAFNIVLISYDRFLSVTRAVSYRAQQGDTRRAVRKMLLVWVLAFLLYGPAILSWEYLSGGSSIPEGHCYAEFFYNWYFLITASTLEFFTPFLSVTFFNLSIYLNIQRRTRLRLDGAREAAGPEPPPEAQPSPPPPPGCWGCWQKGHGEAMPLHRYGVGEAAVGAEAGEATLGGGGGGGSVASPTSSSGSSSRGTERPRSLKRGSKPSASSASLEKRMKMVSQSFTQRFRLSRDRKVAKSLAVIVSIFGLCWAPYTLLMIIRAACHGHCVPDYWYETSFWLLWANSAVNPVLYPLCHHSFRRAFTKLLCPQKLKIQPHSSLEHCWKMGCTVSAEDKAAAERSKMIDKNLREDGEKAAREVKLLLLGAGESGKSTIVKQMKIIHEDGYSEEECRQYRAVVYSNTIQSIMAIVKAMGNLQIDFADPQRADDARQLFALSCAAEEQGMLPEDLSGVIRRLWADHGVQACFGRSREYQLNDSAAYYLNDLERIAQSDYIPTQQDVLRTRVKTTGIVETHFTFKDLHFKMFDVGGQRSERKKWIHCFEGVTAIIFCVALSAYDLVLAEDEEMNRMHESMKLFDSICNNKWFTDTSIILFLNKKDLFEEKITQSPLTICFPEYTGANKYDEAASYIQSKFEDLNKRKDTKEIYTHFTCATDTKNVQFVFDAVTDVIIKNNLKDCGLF

As for `Fc1ccccc1CN1CCc2c(ncnc2N2CCN(C3CCC3)CC2)C1` [Compound 66, 4-(4-cyclobutylpiperazin-1-yl)-7-(2-fluorobenzyl)-5,6,7,8-tetrahydropyrido[3,4-d]pyrimidine], the inhibition at 4 µM under setting [1] was ≥ 90%. For the compound `O=C(c1cccc2ccccc12)N1CCc2cnc(N3CCN(C4CCC4)CC3)nc2CC1` [Compound 404, 2-(4-cyclobutylpiperazin-1-yl)-7-(1-naphthoyl)-6,7,8,9-tetrahydro-5H-pyrimido[4,5-d]azepine], the inhibition at 4 µM under setting [2] is ≥ 90%. Take `O=C(c1ccc(F)cc1)N1CCc2cnc(N3CCN(C4CCC4)CC3)nc2CC1` [Compound 194, 2-(4-cyclobutylpiperazin-1-yl)-7-(4-fluorobenzoyl)-6,7,8,9-tetrahydro-5H-pyrimido[4,5-d]azepine]: under setting [3], the inhibition at 4 µM was ≥ 90%.

As to `Cc1oc(-c2ccc(Cl)cc2)cc1C(=O)N1CCc2cnc(N3CCN(C4CCC4)CC3)nc2CC1` [Compound 471, 7-[5-(4-chlorophenyl)-2-methyl-3-furoyl]-2-(4-cyclobutylpiperazin-1-yl)-6,7,8,9-tetrahydro-5H-pyrimido[4,5-d]azepine], the inhibition at 4 µM under setting [2] was ≥ 90%. For the compound `O=C(C1c2ccccc2Oc2ccccc21)N1CCc2cnc(N3CCN(C4CCC4)CC3)nc2CC1` [Compound 358, 2-(4-cyclobutylpiperazin-1-yl)-7-(9H-xanthen-9-ylcarbonyl)-6,7,8,9-tetrahydro-5H-pyrimido[4,5-d]azepine], under setting [3], the inhibition at 4 µM was ≥ 90%. For the compound `O=C(c1csnn1)N1CCc2cnc(N3CCN(C4CCC4)CC3)nc2CC1` [Compound 527, 2-(4-cyclobutylpiperazin-1-yl)-7-(1,2,3-thiadiazol-4-ylcarbonyl)-6,7,8,9-tetrahydro-5H-pyrimido[4,5-d]azepine], under setting [2], the inhibition at 4 µM is ≥ 90%. Take `CCOc1ccc(C(=O)N2CCc3cnc(N4CCN(C5CCC5)CC4)nc3CC2)cc1` [Compound 368, 2-(4-cyclobutylpiperazin-1-yl)-7-(4-ethoxybenzoyl)-6,7,8,9-tetrahydro-5H-pyrimido[4,5-d]azepine]: the inhibition at 4 µM under setting [3] was ≥ 90%. As to `O=C(c1cnn(-c2ccccc2)c1C(F)(F)F)N1CCc2cnc(N3CCN(C4CCC4)CC3)nc2CC1` [Compound 511, 2-(4-cyclobutylpiperazin-1-yl)-7-{[1-phenyl-5-(trifluormethyl)-1H-pyrazol-4-yl]carbonyl}-6,7,8,9-tetrahydro-5H-pyrimido[4,5-d]azepine], the inhibition at 4 µM under setting [2] was ≥ 90%. With `O=C(COc1ccc(F)cc1)N1CCc2cnc(N3CCN(C4CCC4)CC3)nc2CC1` [Compound 317, 2-(4-cyclobutylpiperazin-1-yl)-7-[(4-fluorophenoxy)acetyl]-6,7,8,9-tetrahydro-5H-pyrimido[4,5-d]azepine], under setting [3], the inhibition at 4 µM was ≥ 90%. Regarding `COc1ccc(/C=C/C(=O)N2CCc3cnc(N4CCN(C5CCC5)CC4)nc3CC2)c(OC)c1` [Compound 570, 2-(4-cyclobutylpiperazin-1-yl)-7-[(2E)-3-(2,4-dimethoxyphenyl)prop-2-enoyl]-6,7,8,9-tetrahydro-5H-pyrimido[4,5-d]azepine], the inhibition at 4 µM under setting [2] is ≥ 90%.

Take `c1nc(N2CCN(C3CCC3)CC2)nc2c1CCN(CC1CCOCC1)CC2` [Compound 272, 2-(4-cyclobutylpiperazin-1-yl)-7-(tetrahydro-2H-pyran-4-ylmethyl)-6,7,8,9-tetrahydro-5H-pyrimido[4,5-d]azepine]: under setting [3], the inhibition at 4 µM was ≥ 90%. `O=C(/C=C/c1cccc(F)c1)N1CCc2cnc(N3CCN(C4CCC4)CC3)nc2CC1` [Compound 553, 2-(4-cyclobutylpiperazin-1-yl)-7-[(2E)-3-(3-fluorophenyl)prop-2-enoyl]-6,7,8,9-tetrahydro-5H-pyrimido[4,5-d]azepine]: under setting [2], the inhibition at 4 µM is ≥ 90%.

On to `c1ccc(CN2CCc3c(ncnc3N3CCC(N4CCCCCC4)CC3)C2)cc1` [Compound 18, 4-(4-azepan-1-ylpiperidin-1-yl)-7-benzyl-5,6,7,8-tetrahydropyrido[3,4-d]pyrimidine], for which the inhibition at 4 µM under setting [1] is ≥ 90%. On to `c1cc2c(cc1CN1CCc3cnc(N4CCN(C5CCC5)CC4)nc3CC1)OCCO2` [Compound 258, 2-(4-cyclobutylpiperazin-1-yl)-7-(2,3-dihydro-1,4-benzodioxin-6-ylmethyl)-6,7,8,9-tetrahydro-5H-pyrimido[4,5-d]azepine], for which, under setting [3], the inhibition at 4 µM is ≥ 90%.

On to `CCCC(C)C(=O)N1CCc2cnc(N3CCN(C4CCC4)CC3)nc2CC1` (stereo not shown) [Compound 224, 2-(4-cyclobutylpiperazin-1-yl)-7-(2-methylpentanoyl)-6,7,8,9-tetrahydro-5H-pyrimido[4,5-d]azepine], for which, under setting [3], the inhibition at 4 µM is ≥ 90%.

For `Fc1ccc(CN2CCc3ncnc(N4CCN(C5CCC5)CC4)c3CC2)cc1` [Compound 147, 4-(4-cyclobutylpiperazin-1-yl)-7-(4-fluorobenzyl)-6,7,8,9-tetrahydro-5H-pyrimido[4,5-d]azepine], the inhibition at 4 µM under setting [1] is ≥ 90%. For the compound `c1cc2c(cc1CN1CCc3nc(N4CCN(C5CCC5)CC4)ncc3C1)OCCO2` [Compound 638, 2-(4-cyclobutylpiperazin-1-yl)-6-(2,3-dihydro-1,4-benzodioxin-6-ylmethyl)-5,6,7,8-tetrahydropyrido[4,3-d]pyrimidine], under setting [1], the inhibition at 4 µM is ≥ 90%. Regarding `COc1ccc(Cl)cc1C(=O)N1CCc2cnc(N3CCN(C4CCC4)CC3)nc2CC1` [Compound 420, 7-(5-chloro-2-methoxybenzoyl)-2-(4-cyclobutylpiperazin-1-yl)-6,7,8,9-tetrahydro-5H-pyrimido[4,5-d]azepine], under setting [2], the inhibition at 4 µM was ≥ 90%.

In the case of `O=C(c1ccccc1-c1ccccc1)N1CCc2cnc(N3CCN(C4CCC4)CC3)nc2CC1` [Compound 409, 7-(biphenyl-2-ylcarbonyl)-2-(4-cyclobutylpiperazin-1-yl)-6,7,8,9-tetrahydro-5H-pyrimido[4,5-d]azepine], the inhibition at 4 µM under setting [2] is ≥ 90%. Turning to `c1cncc(CN2CCc3ncnc(N4CCN(C5CCC5)CC4)c3CC2)c1` [Compound 154, 4-(4-cyclobutylpiperazin-1-yl)-7-(pyridin-3-ylmethyl)-6,7,8,9-tetrahydro-5H-pyrimido[4,5-d]azepine], the inhibition at 4 µM under setting [1] is ≥ 90%.

Take `O=C(Cc1ccccc1OCc1ccccc1)N1CCc2cnc(N3CCN(C4CCC4)CC3)nc2CC1` [Compound 314, 7-{[2-(benzyloxy)phenyl]acetyl}-2-(4-cyclobutylpiperazin-1-yl)-6,7,8,9-tetrahydro-5H-pyrimido[4,5-d]azepine]: the inhibition at 4 µM under setting [3] was ≥ 90%. For `CC(CC(=O)N1CCc2cnc(N3CCN(C4CCC4)CC3)nc2CC1)Sc1ccc(Cl)cc1` (stereo not shown) [Compound 342, 7-{3-[(4-chlorophenyl)thio]butanoyl}-2-(4-cyclobutylpiperazin-1-yl)-6,7,8,9-tetrahydro-5H-pyrimido[4,5-d]azepine], the inhibition at 4 µM under setting [3] is ≥ 90%. In the case of `O=C(c1sccc1Cl)N1CCc2cnc(N3CCN(C4CCC4)CC3)nc2CC1` [Compound 446, 7-[(3-chloro-2-thienyl)carbonyl]-2-(4-cyclobutylpiperazin-1-yl)-6,7,8,9-tetrahydro-5H-pyrimido[4,5-d]azepine], under setting [2], the inhibition at 4 µM is ≥ 90%. Turning to `O=C(c1ccc(F)c(Cl)c1)N1CCc2cnc(N3CCN(C4CCC4)CC3)nc2CC1` [Compound 393, 7-(3-chloro-4-fluorobenzoyl)-2-(4-cyclobutylpiperazin-1-yl)-6,7,8,9-tetrahydro-5H-pyrimido[4,5-d]azepine], under setting [2], the inhibition at 4 µM was ≥ 90%. Regarding `Cc1oc(C(C)(C)C)cc1C(=O)N1CCc2cnc(N3CCN(C4CCC4)CC3)nc2CC1` [Compound 466, 7-(5-tert-butyl-2-methyl-3-furoyl)-2-(4-cyclobutylpiperazin-1-yl)-6,7,8,9-tetrahydro-5H-pyrimido[4,5-d]azepine], under setting [2], the inhibition at 4 µM was ≥ 90%. Take `O=C(COc1ccc2ccccc2c1)N1CCc2cnc(N3CCN(C4CCC4)CC3)nc2CC1` [Compound 336, 2-(4-cyclobutylpiperazin-1-yl)-7-[(2-naphthyloxy)acetyl]-6,7,8,9-tetrahydro-5H-pyrimido[4,5-d]azepine]: the inhibition at 4 µM under setting [3] was ≥ 90%. In the case of `O=C(c1ccc(Br)s1)N1CCc2cnc(N3CCN(C4CCC4)CC3)nc2CC1` [Compound 449, 7-[(5-bromo-2-thienyl)carbonyl]-2-(4-cyclobutylpiperazin-1-yl)-6,7,8,9-tetrahydro-5H-pyrimido[4,5-d]azepine], the inhibition at 4 µM under setting [2] is ≥ 90%.

Take `COc1cccc(CN2CCc3nc(N4CCN(C5CCC5)CC4)ncc3C2)c1OC` [Compound 640, 2-(4-cyclobutylpiperazin-1-yl)-6-(2,3-dimethoxybenzyl)-5,6,7,8-tetrahydropyrido[4,3-d]pyrimidine]: the inhibition at 4 µM under setting [1] is ≥ 90%. On to `O=C(Cc1c(Cl)cccc1Cl)N1CCc2cnc(N3CCN(C4CCC4)CC3)nc2CC1` [Compound 303, 2-(4-cyclobutylpiperazin-1-yl)-7-[(2,6-dichlorophenyl)acetyl]-6,7,8,9-tetrahydro-5H-pyrimido[4,5-d]azepine], for which the inhibition at 4 µM under setting [3] is ≥ 90%. Turning to `CCSc1ncccc1C(=O)N1CCc2cnc(N3CCN(C4CCC4)CC3)nc2CC1` [Compound 502, 2-(4-cyclobutylpiperazin-1-yl)-7-{[2-(ethylthio)pyridin-3-yl]carbonyl}-6,7,8,9-tetrahydro-5H-pyrimido[4,5-d]azepine], the inhibition at 4 µM under setting [2] is ≥ 90%. As for `COc1cc(Br)c(/C=C/C(=O)N2CCc3cnc(N4CCN(C5CCC5)CC4)nc3CC2)cc1OC` [Compound 588, 7-[(2E)-3-(2-bromo-4,5-dimethoxyphenyl)prop-2-enoyl]-2-(4-cyclobutylpiperazin-1-yl)-6,7,8,9-tetrahydro-5H-pyrimido[4,5-d]azepine], the inhibition at 4 µM under setting [3] was ≥ 90%.
